A word on the chromatographic logP: it is lipophilicity estimated from chromatographic retention. Lower therefore signals lower lipophilicity.

The source of these data is patent US6191155A (priority 1997, dated 2001).

SMILES strings stand for the structures.

One series relates to Plutella xylostella. The experiment in a line: Plutella test (caterpillars of the diamond-back moth on cabbage leaves). In kind it is in vivo, Plutella xylostella (on Brassica oleracea). The settings on record: 168 h, active compound concentration 0.1 % by weight, after 7 days, read-out: Kill in % after 7d. As for the experimental part: Solvent: 7 parts by weight of dimethylformamide
Emulsifier: 1 part by weight of alkylaryl polyglycol ether
(§1) To produce a suitable preparation of active compound, 1 part by weight of active compound is mixed with the stated amounts of solvent and emulsifier, and the concentrate is diluted with water to the desired concentration.
Cabbage leaves (Brassica oleracea) are treated by being dipped into the preparation of active compound of the desired concentration and are populated with caterpillars of the diamond-back moth (Plutella xylostella) while the leaves are still moist.
After 7 days, the kill is determined. An efficacy of 100% means that all caterpillars have been killed, while an efficacy of 0% means that none of the caterpillars have been killed.
`O=C(OCCOCCN1CCCC1)c1snc(Cl)c1Cl` [Example 3]: the mortality at 0.1 % strength was determined as 100%. Turning to `O=C(OCc1cccnc1)c1snc(Cl)c1Cl` [Example 12], the mortality at 0.1 % strength worked out at 100%.

The subject of the next series is Erysiphe graminis f.sp. hordei. The experiment in a line: Erysiphe test (barley)/protective. The settings on record: active compound concentration 250 (head: % by weight); protective; 7 days after inoculation; 100% = no infection. In kind it is in vivo, Erysiphe graminis f.sp. hordei (on barley). As for the experimental part:
Erysiphe Test (Barley)/Protective
(§2) Solvent: 10 parts by weight of N-methyl-pyrrolidone
(§3) Emulsifier: 0.6 parts by weight of alkylaryl polyglycol ether
as §1
To test for protective activity, young plants are sprayed with the preparation of active compound at the stated application rate.
After the spray coating has dried on, the plants are dusted with spores of Erysiphe graminis f.sp. hordei.
The plants are placed in a greenhouse at a temperature of approximately 20° C. and a relative atmospheric humidity of approximately 80% to promote the development of mildew pustules.
Evaluation is carried out 7 days after the inoculation. 0% means an efficacy which corresponds to that of the control, while an efficacy of 100% means that no infection is observed.
Consider `O=C(OCCOCCN1CCCC1)c1snc(Cl)c1Cl` [Example 3], for which the Efficacy in % is on record as 100%.

Another series relates to Leptosphaeria nodorum. The experiment in a line: Leptosphaeria nodorum test (wheat)/protective. In kind it is in vivo, Leptosphaeria nodorum (on wheat). The settings on record: application rate 250 g/ha; protective; evaluation 10 days after inoculation. As for the experimental part:
Leptosphaeria nodorum Test (Wheat)/Protective
as §2, §3, §1
To test for protective activity, young plants are sprayed with the preparation of active compound at the stated application rate. After the spray coating has dried on, the plants are sprayed with a spore suspension of Leptosphaeria nodorum. The plants remain in an incubation cabin at 20° C. and 100% relative atmospheric humidity for 48 hours.
The plants are placed in a greenhouse at a temperature or approximately 15° C. and a relative atmospheric humidity of 80%.
Evaluation is carried out 10 days after the inoculation. 0% means an efficacy which corresponds to that of the control, while an efficacy of 100% means that no infection is observed.
Regarding `O=C(OCCc1ccc(Cl)cc1)c1snc(Cl)c1Cl` [Example 13], the Efficacy in % is 81%.

Test system in the next series: not listed separately
In words: log P by HPLC (EEC Directive 79/831 Annex V.A8). The settings on record: gradient method, acetonitrile/0.1% of aqueous phosphoric acid. It is filed as physicochemical. As for the experimental part:
*) The log P values were determined in accordance with EEC Directive 79/831
Annex V.A8 by HPLC (gradient method, acetonitrile/0.1% of aqueous
`CCN(CC)CCOC(=O)c1snc(Cl)c1Cl` [Example 2]: the chromatographic logP came out at 1.37. The same measure, in the same setting: for `O=C(OCCOCCN1CCCC1)c1snc(Cl)c1Cl` [Example 3] the value was 1.36. On the same count and under the same terms, for `O=C(OCCOc1cccc(C(F)(F)F)c1)c1snc(Cl)c1Cl` [Example 4] the value was 4.71; for `O=C(OCCOCc1ccccc1)c1snc(Cl)c1Cl` [Example 5], 4.12; for `COC(=O)c1ccc(OCCOC(=O)c2snc(Cl)c2Cl)cc1` [Example 6], 3.91. Same read-out and setting: under `CCN(CCOCCOC(=O)c1snc(Cl)c1Cl)c1ccccc1` [Example 7] stands 2.6; under `O=C(OCCOCC(F)(F)F)c1snc(Cl)c1Cl` [Example 8], 3.55; under `O=C(OCCOC(CF)CF)c1snc(Cl)c1Cl` [Example 9], 3.11. With `O=C(OCCOc1ccc(Cl)cc1)c1snc(Cl)c1Cl` [Example 10], the chromatographic logP turned out to be 4.58.

Turning to `O=C(OCCn1nnc2ccccc21)c1snc(Cl)c1Cl` [Example 11], the chromatographic logP is 2.81. With `CSC(=O)c1snc(Cl)c1Cl` [Example 15], the chromatographic logP was found to be 3.46.

The compound `CC(C)CSC(=O)c1snc(Cl)c1Cl` [Example 17] showed a chromatographic logP of 5.16. For `CCCSC(=O)c1snc(Cl)c1Cl` [Example 18], the chromatographic logP is 4.66. The same measure, in the same setting: under `Cc1ccc(C(C)OC(=O)c2snc(Cl)c2Cl)cc1` (centres unmarked) [Example 19] stands 5.02.

In turn, `O=C(OCC(O)CO)c1snc(Cl)c1Cl` (centres unmarked) [Example 20] came in with a chromatographic logP of 1.49.

The test system of another series is fungi.
Assay: not given
The settings on record: cited from earlier work.
In the case of `CC(C)OC(=O)c1snc(Cl)c1Cl` [isopropyl 3,4-dichloro-isothiazol-5-carboxylate], the “activity in controlling fungi” value was “good”.
